From article PMC9501172, “Gallic Acid Alkyl Esters: Trypanocidal and Leishmanicidal Activity, and Target Identification via Modeling Studies” (Molecules, 2022)
Converted amounts (≈) assume the structure as drawn. Read-outs that look alike come from different tables or passages of the source.

How the values were obtained:
[1] = test system: promastigotes of L. major; test: Leishmanicidal activity, resazurin viability assay; assay type: cell-based, Leishmania major; conditions: for inhibition at 100 µM: read-out: Growth Inhibition (% at 100 μM); for leishmanicidal activity: in words; for GI50: values in brackets
Protocol: (§1) Trypanocidal, leishmanicidal, and cytotoxic activities of gallic acid alkyl esters were determined with bloodstream forms of T. brucei (clone 427-221a), promastigotes of L. major (strain MHOM/IL/81/Friedlin [51]), and human myeloid HL-60 cell, respectively. The viability of cells was evaluated with the vital dye resazurin as previously described with some modifications. Cells were seeded in 96-well plates in a final volume of 200 μL Baltz medium (T. brucei bloodstream forms and HL-60 cells) or Schneider’s insect medium (L. major promastigotes) supplemented with 16.7% and 10% fetal bovine serum, respectively. Test compounds were assayed at tenfold dilutions starting from 100 μM down up to 100 nM in the presence of 0.9% DMSO. Wells containing medium with 0.9% DMSO alone served as controls. The initial cell densities were 1 × 10^4/mL for T. brucei bloodstream forms, 2.5 × 10^5/mL for L. major promastigotes, and 5 × 10^4/mL for HL-60 cells. The cultures were incubated at 37 °C (T. brucei bloodstream forms and HL-60 cells) and 27 °C (L. major promastigotes) in a humidified atmosphere containing 5% CO2. After 24 h of incubation, 20 µL of a 0.5 mM resazurin solution prepared in sterile PBS was added to each well, and the cultures were incubated for another 48 h. Then, the absorbance of each well was read on a BioTek ELx808 microplate reader using a test wavelength of 570 nm and a reference wavelength of 630 nm. The 50% growth inhibition (GI50) value, i.e., the concentration of a compound necessary to reduce the growth rate of cells by 50% compared to the control, was determined by linear interpolation. The minimum inhibitory concentration (MIC) value, i.e., the concentration of a compound at which all cells were killed, was determined microscopically.

HL-60 / T. brucei = test: Selectivity: ratio of cytotoxic to trypanocidal activity; assay type: cell-based, Trypanosoma brucei; conditions: for GI50 Ratio: GI50(HL-60)/GI50(T. brucei); for MIC Ratio: MIC(HL-60)/MIC(T. brucei)
Protocol: as §1

[2] = test system: bloodstream forms of T. brucei; test: Trypanocidal activity, resazurin viability assay; assay type: cell-based, Trypanosoma brucei; conditions: for GI50 / MIC: Trypanosoma brucei; for MIC: concentration at which all cells were killed, determined microscopically
Protocol: as §1

[3] = test system: human myeloid HL-60 cells; test: General cytotoxicity, resazurin viability assay; assay type: cell-based; conditions: for cytotoxicity against the human cells: HL-60, in words; for GI50 / MIC: Homo sapiens; for GI50: HL-60, 72 h, resazurin, 24 h + 48 h; for MIC: concentration at which all cells were killed, determined microscopically
Protocol: as §1

[4] = test system: T. brucei bloodstream forms; test: Motility assay with glucose or glycerol as substrate; assay type: cell-based, Trypanosoma brucei; conditions: 55 mM glucose, compound 200 μM, PBS
Protocol: A culture of bloodstream forms of T. brucei was divided into two equal portions (9 mL) and collected by centrifugation. The cell pellets were resuspended in 1 mL PBS containing 55 mM glucose or 55 mM glycerol. After subsequent centrifugation, the cell pellets were resuspended again in PBS/55 mM glucose and PBS/55 mM glycerol, respectively, and the cell density was adjusted to 2 × 10^6/mL. Then, 100 μL of trypanosomes were mixed with 100 μL PBS/55 mM glucose or 100 μL PBS/55 mM glycerol containing gallic acid alkyl esters at a concentration of 400 μM, giving a final concentration of the esters in the assay of 200 μM. The final concentration of DMSO in each test was 0.9%. The motility of the trypanosomes was examined under the microscope.

Vero cells [5] = test system: Vero cells; design: method as in PMID 18797755; conditions: cited from earlier work
Vero cells [6] = test: Cytotoxicity against Vero cells quoted from the literature; assay type: cell-based; conditions: for times Vero cells are less sensitive compared with HL-60 cells: GI50(Vero) vs GI50(HL-60); for selectivity: using the Vero cell cytotoxicity as the basis, relative to trypanocidal activity
T. brucei = conditions: cited from earlier work
[7] = test system: murine B-lymphoma WEHI-231 cells; design: method as in PMID 9466819; conditions: cited from earlier work
[8] = 72 h, bloodstream forms clone 427-221a, resazurin, 24 h + 48 h, read-out: T. brucei GI50
[9] = bloodstream forms clone 427-221a
[10] = T. brucei bloodstream forms, GI50 expressed in μg/mL, read-out: GI50
[11] = trypanocidal activity of related phenolic esters

| SMILES | MIC ([1]; Leishmania major) [µM] | inhibition at 100 µM ([1]; Leishmania major) [%] | GI50 Ratio (HL-60 / T. brucei) | MIC Ratio (HL-60 / T. brucei) | GI50 [2, 8] [µM] | MIC [2, 9] [µM] | GI50 [3] [µM] | MIC [3] [µM] | Motility after 5 min [4] | other results |
| --- | --- | --- | --- | --- | --- | --- | --- | --- | --- | --- |
| CCOC(=O)c1cc(O)c(O)c(O)c1 [Compound 2, Gallic acid ethyl ester] | > 100 | 0 | >3.6 | >1 | 27.9 ± 2.4 | 100 (≈ 19.8 µg/mL) | > 100 | > 100 | + + + | leishmanicidal activity [1]: no leishmanicidal activity; cytotoxicity against the human cells [3]: no cytotoxicity |
| CCCCOC(=O)c1cc(O)c(O)c(O)c1 [Compound 5, Gallic acid butyl ester] | 100 (≈ 22.6 µg/mL) | 58 |  | >10 | ~3 | 10 (≈ 2.26 µg/mL) | 74.8 ± 4.5 | > 100 | + + + | GI50 ([1]; Leishmania major): 62.4 µM; GI50 (Vero cells [5]): 361 µM; times less active compared with suramin ([2]; T. brucei bloodstream forms): 10–100 times; GI50 [2, 10]: 0.63 to 0.78 µg/mL; times Vero cells are less sensitive compared with HL-60 cells (Vero cells [6]): 4.8 times; selectivity (Vero cells [6]): > 100 |
| CC(C)CCOC(=O)c1cc(O)c(O)c(O)c1 [Compound 6, Gallic acid isopentyl ester] | 100 (≈ 24 µg/mL) | 45 |  | >10 | ~3 | 10 (≈ 2.4 µg/mL) | 90.4 ± 21.6 | > 100 | + + + | times less active compared with suramin ([2]; T. brucei bloodstream forms): 10–100 times; GI50 [2, 10]: 0.63 to 0.78 µg/mL |
| O=C(/C=C/c1ccc(O)c(O)c1)OCCc1ccccc1 [caffeic acid phenethyl ester] |  |  |  |  |  |  |  |  |  | GI50 (T. brucei; trypanocidal activity): 0.046 µM |
| CC(C)OC(=O)c1cc(O)c(O)c(O)c1 [Compound 3, Gallic acid isopropyl ester] | > 100 | 34 | 10.5 | >1 | 8.4 ± 2.2 | 100 (≈ 21.2 µg/mL) | 87.9 ± 8.2 | > 100 | + + + |  |
| CCCCCOC(=O)c1cc(O)c(O)c(O)c1 [Compound 7, Gallic acid pentyl ester] | > 100 | 0 | >3.0 | >1 | 32.8 ± 0.9 | 100 (≈ 24 µg/mL) | > 100 | > 100 | + + + | leishmanicidal activity [1]: no leishmanicidal activity; cytotoxicity against the human cells [3]: no cytotoxicity; melting point: 94 to 96 °C |
| COC(=O)c1cc(O)c(O)c(O)c1 [Compound 1, Gallic acid methyl ester] | > 100 | 2 | >4.1 | >1 | 24.5 ± 4.5 | 100 (≈ 18.4 µg/mL) | > 100 | > 100 | + + + | cytotoxicity against the human cells [3]: no cytotoxicity |
| COCCOC(=O)c1cc(O)c(O)c(O)c1 [Compound 8, Gallic acid 2-methoxyethyl ester] | 100 (≈ 22.8 µg/mL) | 47 | 17.7 | >1 | 5.6 ± 1.3 | 100 (≈ 22.8 µg/mL) | 99.2 ± 9.4 | > 100 | + + + | melting point: 152 to 153 °C |
| CCCCCCCCCCCCOC(=O)c1cc(O)c(O)c(O)c1 [dodecyl gallate] |  |  |  |  |  |  |  |  |  | GI50 [7]: 1 µM |
| Cc1ccc(C(=O)Nc2ccc(S(=O)(=O)O)c3cc(S(=O)(=O)O)cc(S(=O)(=O)O)c23)cc1NC(=O)c1cccc(NC(=O)Nc2cccc(C(=O)Nc3cc(C(=O)Nc4ccc(S(=O)(=O)O)c5cc(S(=O)(=O)O)cc(S(=O)(=O)O)c45)ccc3C)c2)c1 [Suramin, reference compound] |  |  | >2500 | >100 | 0.04 | 1 (≈ 1.3 µg/mL) | > 100 | > 100 |  | times higher GI50 ratio than gallic acid alkyl esters 4, 5, and 6 (HL-60 / T. brucei): 100 times; times higher MIC ratio than gallic acid alkyl esters 4, 5, and 6 (HL-60 / T. brucei): 10 times |
| CC(C)CCOC(=O)C=Cc1ccc(O)c(O)c1 [caffeic acid isopentyl ester, 3,4-dihydroxycinnamic (caffeic) acid isopentyl ester] |  |  |  |  |  |  |  |  |  | GI50 (T. brucei; [11]): 1.24 µM |
| CCCOC(=O)c1cc(O)c(O)c(O)c1 [Compound 4, Gallic acid propyl ester] | 100 (≈ 21.2 µg/mL) | 61 |  | >10 | ~3 | 10 (≈ 2.12 µg/mL) | 82 ± 8.2 | > 100 | + + + | GI50 ([1]; Leishmania major): 50.4 µM; GI50 (Vero cells [5]): 713 µM; times less active compared with suramin ([2]; T. brucei bloodstream forms): 10–100 times; GI50 [2, 10]: 0.63 to 0.78 µg/mL; times Vero cells are less sensitive compared with HL-60 cells (Vero cells [6]): 8.7 times; selectivity (Vero cells [6]): > 100 |
| CCCCCCCCOC(=O)c1cc(O)c(O)c(O)c1 [octyl gallate] |  |  |  |  |  |  |  |  |  | GI50 [7]: 1.5 µM |
| O=C(O)c1cc(O)c(O)c(O)c1 [gallic acid, 3,4,5-trihydroxybenzoic acid] |  |  |  |  |  |  |  |  |  | GI50 (T. brucei; trypanocidal activity of the reactant): 14.2 µM |
| C[C@@H]1[C@H](O)[C@@H](C)/C=C/C=C/C=C/C=C/C=C/C=C/C=C/[C@H](O[C@@H]2O[C@H](C)[C@@H](O)[C@H](N)[C@@H]2O)C[C@@H]2O[C@](O)(C[C@@H](O)C[C@@H](O)[C@H](O)CC[C@@H](O)C[C@@H](O)CC(=O)O[C@H]1C)C[C@H](O)[C@H]2C(=O)O [Amphotericin B, reference compound] | 0.1 (≈ 0.0924 µg/mL) |  |  |  |  |  |  |  |  | inhibition at 10 µM ([1]; Leishmania major, at 10 μM, read-out: Growth Inhibition (%)): 100%; GI50 ([1]; Leishmania major): 0.04 µM |
| CCOC(=O)C=Cc1ccc(O)c(OC)c1 [ferulic acid ethyl ester, 3-methoxy-4-hydroxycinnamic (ferulic) acid ethyl ester] |  |  |  |  |  |  |  |  |  | GI50 (T. brucei; [11]): 110 µM |
